From US10696651B2, “Heterocyclic compound” (Takeda Pharmaceutical Company Limited, priority 2016, dated 2020)
Counter-ions that a name gives are not always drawn. Like-named read-outs stand apart in the source and are kept apart here.

Legend:
[1] = tested on: osteosarcoma cell line U-2-OS; test: In vitro cell proliferation inhibition assay (CellTiter-Glo, low amino acid media); type: cell-based; conditions: McCoy's 5A low amino acid media; for inhibition at 0.1 µM: Homo sapiens, U2OS, 72 h, cell proliferation inhibitory rate; for inhibitory rate: 72 hr
Protocol: A cell suspension (40 μL) (1000 cells/well) of osteosarcoma cell line U-2-OS obtained from ATCC (American Type Culture Collection) was seeded on a 384 plate using McCoy's 5A low amino acid media (amino acid content 25%). The seeded cells were incubated (37° C., 5% CO2) overnight to 24 hr at the longest. Each example compound was dissolved (10 mM) in DMSO, delivered to wells by using TECAN HP D300 (TECAN), and the plate was incubated for 72 hr (37° C., 5% CO2). A well without addition of compound was treated similarly as a control group. Celltiter-Glo (registered trade mark) Luminescent Cell Viability Assay reagent (Promega KK) equilibrated at room temperature was added (40 μL/well) to cells in each well before compound treatment (untreated group) and 72 hours after compound treatment. After incubation for 10 min, cell proliferation inhibitory rate was measured by the amount of ATP which is a cell viability marker. Luminescence of cells showing ATP amount was measured using ARVO MX (PerkinElmer). Based on the luminescence values of the untreatment group, the control group without addition of Example compound solution, and the treatment group with addition of Example compound, the cell proliferation inhibitory rate (%) of the test compound at a compound concentration of 100 nM was calculated by the following formula and the results thereof are shown in Tables 4-1, 4-2. Inhibitory rate (%)=(1−(luminescence value of treatment group−luminescence value of untreatment group)÷(luminescence value of control group−luminescence value of untreatment group))×100

[2] = biological target: T1, human GCN2 full-length protein (Homo sapiens, UniProt Q9P2K8); test: GCN2 enzyme inhibition assay (LanthaScreen TR-FRET); type: biochemical; conditions: GCN2 enzyme inhibitory activity at compound concentration of 3 μM; for inhibition at 3 µM: read-out: inhibitory rate
T1 construct: purchased Carna Biosciences, Inc
T1 sequence (Q9P2K8 whole entry): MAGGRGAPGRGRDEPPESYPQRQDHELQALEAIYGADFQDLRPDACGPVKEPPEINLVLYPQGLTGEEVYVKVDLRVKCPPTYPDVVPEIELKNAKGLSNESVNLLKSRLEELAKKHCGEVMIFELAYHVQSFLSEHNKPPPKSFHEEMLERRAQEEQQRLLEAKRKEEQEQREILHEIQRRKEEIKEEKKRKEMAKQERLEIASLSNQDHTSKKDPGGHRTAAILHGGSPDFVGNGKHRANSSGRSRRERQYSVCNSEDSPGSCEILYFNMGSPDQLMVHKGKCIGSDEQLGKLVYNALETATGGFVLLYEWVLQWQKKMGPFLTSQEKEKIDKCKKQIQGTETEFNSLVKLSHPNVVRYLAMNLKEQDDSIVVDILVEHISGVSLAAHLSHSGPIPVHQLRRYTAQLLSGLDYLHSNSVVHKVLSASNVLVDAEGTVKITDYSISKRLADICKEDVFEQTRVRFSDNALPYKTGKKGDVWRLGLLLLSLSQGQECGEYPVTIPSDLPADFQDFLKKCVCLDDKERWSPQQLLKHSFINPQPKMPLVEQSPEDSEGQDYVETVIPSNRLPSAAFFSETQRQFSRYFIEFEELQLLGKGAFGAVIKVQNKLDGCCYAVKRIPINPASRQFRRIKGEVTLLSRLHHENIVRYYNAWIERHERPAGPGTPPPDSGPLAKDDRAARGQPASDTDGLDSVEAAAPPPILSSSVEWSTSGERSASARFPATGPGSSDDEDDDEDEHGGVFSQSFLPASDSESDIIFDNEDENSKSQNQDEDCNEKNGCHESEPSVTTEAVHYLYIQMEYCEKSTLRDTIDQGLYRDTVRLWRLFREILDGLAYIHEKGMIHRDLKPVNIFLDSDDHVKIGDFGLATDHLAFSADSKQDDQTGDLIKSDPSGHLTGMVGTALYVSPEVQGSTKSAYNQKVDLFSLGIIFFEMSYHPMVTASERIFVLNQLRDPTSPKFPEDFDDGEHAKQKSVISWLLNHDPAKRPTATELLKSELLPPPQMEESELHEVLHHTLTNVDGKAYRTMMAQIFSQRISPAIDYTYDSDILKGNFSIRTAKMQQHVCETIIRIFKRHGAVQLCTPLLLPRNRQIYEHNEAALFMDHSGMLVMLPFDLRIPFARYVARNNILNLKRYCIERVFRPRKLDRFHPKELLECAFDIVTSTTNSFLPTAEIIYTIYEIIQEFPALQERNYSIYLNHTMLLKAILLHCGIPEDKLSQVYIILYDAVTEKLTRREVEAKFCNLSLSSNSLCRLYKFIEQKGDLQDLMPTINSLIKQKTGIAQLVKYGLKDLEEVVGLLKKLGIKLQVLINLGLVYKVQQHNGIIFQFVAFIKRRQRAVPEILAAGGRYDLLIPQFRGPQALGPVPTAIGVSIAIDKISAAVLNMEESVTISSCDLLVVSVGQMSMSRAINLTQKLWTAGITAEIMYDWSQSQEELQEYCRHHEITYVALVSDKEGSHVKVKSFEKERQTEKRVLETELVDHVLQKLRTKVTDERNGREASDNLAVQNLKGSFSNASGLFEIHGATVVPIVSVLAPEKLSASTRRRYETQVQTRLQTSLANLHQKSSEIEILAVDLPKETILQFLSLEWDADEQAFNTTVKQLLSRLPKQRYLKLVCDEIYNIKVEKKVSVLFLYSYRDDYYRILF
Protocol: GCN2 enzyme was preserved at -70° C. and used. The GCN2 enzyme inhibitory activity of the test compound was measured by the LanthaScreenTR-FRET (Time Resolved Fluorescence Resonance Energy Transfer) method (manufactured by ThermoFisher). […] Then, GCN2 enzyme solution diluted with the assay buffer was added by 2 μL to each well. The enzyme solution was not added to a part of the wells to give a control group. After incubation at room temperature for 1 hr, 570 μM ATP solution containing 390 nM […] physiological protein substrate (ThermoFisher) was added by 2 μL. After reaction at room temperature for 1 hr, TR-FRET Dilution Buffer (ThermoFisher) containing 4 nM Terbium-labeled anti-elF2alpha [[…]] antibody (ThermoFisher) dissolved therein was added by 2 μL to each well. After standing at room temperature for 1 hr, time decomposition fluorescence measurement was performed on platereader Envision (manufactured by PerkinElmer).

Row | Compound | inhibition at 3 µM ([2]; Table 3-2) | inhibition at 3 µM ([2]; Table 3-1) | inhibition at 0.1 µM ([1]; Table 4-2) | also measured
1 | Nc1ncc(C#Cc2c(F)ccc(NS(=O)(=O)c3cc(Cl)cnc3OC(F)F)c2F)cn1 [Example 162, N-(3-((2-aminopyrimidin-5-yl)ethynyl)-2,4-difluorophenyl)-5-chloro-2-(difluoromethoxy)pyridine-3-sulfonamide] | 99% |  | 35% | 
2 | O=S(=O)(Nc1ccc(F)c(C#Cc2cnc(N[C@H]3CC[C@H](O)CC3)nc2)c1F)c1cc(Cl)cc2c1OCC2O (stereo partly drawn) [Example 190, 5-chloro-N-(2,4-difluoro-3-((2-((trans-4-hydroxycyclohexyl)amino)pyrimidin-5-yl)ethynyl)phenyl)-3-hydroxy-2,3-dihydro-1-benzofuran-7-sulfonamide] |  |  |  | inhibitory rate ([1]; Table 4-2): 65%; inhibitory rate ([2]; Table 3-2, 3 µM): 99%
3 | C[C@H](CO)Nc1ncc(C#Cc2c(F)ccc(NS(=O)(=O)c3cc(Cl)cc(CO)c3Cl)c2F)nn1 [Example 178, 2,5-dichloro-N-(2,4-difluoro-3-((3-(((2R)-1-hydroxypropan-2-yl)amino)-1,2,4-triazin-6-yl)ethynyl)phenyl)-3-(hydroxymethyl)benzenesulfonamide] | 100% |  | 74% | 
4 | C[C@H](CO)Nc1ncc(C#Cc2c(F)ccc(NS(=O)(=O)c3cc(Cl)cc4c3OCC4O)c2F)cn1 (stereo partly drawn) [Example 184, 5-chloro-N-(2,4-difluoro-3-((2-(((2R)-1-hydroxypropan-2-yl)amino)pyrimidin-5-yl)ethynyl)phenyl)-3-hydroxy-2,3-dihydro-1-benzofuran-7-sulfonamide] | 99% |  |  | inhibitory rate ([1]; Table 4-2): 59%
5 | Nc1ncc(C#Cc2c(F)ccc(NS(=O)(=O)c3cc(Cl)ccc3Cl)c2F)cn1 [Example 17, N-(3-((2-aminopyrimidin-5-yl)ethynyl)-2,4-difluorophenyl)-2,5-dichlorobenzenesulfonamide] |  | 99% |  | inhibitory rate ([1]; Table 4-1): 73%

Now from value to compound, other results behind:

Row | inhibition at 3 µM ([2]; Table 3-2) | inhibition at 3 µM ([2]; Table 3-1) | Compound | inhibition at 0.1 µM ([1]; Table 4-2) | also measured
6 | 100% |  | Cc1ncc(Cl)cc1S(=O)(=O)Nc1ccc(F)c(C#Cc2cnc(Nc3cnn(C)c3)nc2)c1F [Example 163, 5-chloro-N-(2,4-difluoro-3-((2-((1-methyl-1H-pyrazol-4-yl)amino)pyrimidin-5-yl)ethynyl)phenyl)-2-methylpyridine-3-sulfonamide] | 88% | 
7 |  | 100% | Cc1ncc(Cl)cc1S(=O)(=O)Nc1ccc(F)c(C#Cc2cnc3[nH]ncc3c2)c1F [Example 2, 5-chloro-N-(2,4-difluoro-3-(1H-pyrazolo[3,4-b]pyridin-5-ylethynyl)phenyl)-2-methylpyridine-3-sulfonamide] |  | inhibition at 0.1 µM ([1]; Table 4-1): 92%
8 |  | 99% | O=S(=O)(Nc1ccc(F)c(C#Cc2cnc3[nH]ncc3c2)c1F)c1cc(Br)ccc1F [Example 24, 5-bromo-N-(2,4-difluoro-3-(1H-pyrazolo[3,4-b]pyridin-5-ylethynyl)phenyl)-2-fluorobenzenesulfonamide TFA Salt] |  | inhibition at 0.1 µM ([1]; Table 4-1): 37%
9 |  | 99% | O=S(=O)(Nc1ccc(F)c(C#Cc2cnc3[nH]ncc3c2)c1F)c1cc(Cl)ccc1Cl [Example 10, 2,5-dichloro-N-(2,4-difluoro-3-(1H-pyrazolo[3,4-b]pyridin-5-ylethynyl)phenyl)benzenesulfonamide TFA Salt] |  | inhibitory rate ([1]; Table 4-1, TFA Salt): 63%
10 | 99% |  | COc1c(CO)cc(Cl)cc1S(=O)(=O)Nc1ccc(F)c(C#Cc2cnc(NCCO)nc2)c1F [Example 149, 5-chloro-N-(2,4-difluoro-3-((2-((2-hydroxyethyl)amino)pyrimidin-5-yl)ethynyl)phenyl)-3-(hydroxymethyl)-2-methoxybenzenesulfonamide] | 70% | 
11 | 102% |  | O=S(=O)(Nc1ccc(F)c(C#Cc2cnc(NC3COC3)nc2)c1F)c1cc(Cl)cc(CO)c1Cl [Example 181, 2,5-dichloro-N-(2,4-difluoro-3-((2-(oxetan-3-ylamino)pyrimidin-5-yl)ethynyl)phenyl)-3-(hydroxymethyl)benzenesulfonamide] | 80% | 
